Assay: skin flux of psilocin, inventors' testing
Assay type: in vitro ADME
Description: With psilocin, specifically, the Madsen et al. findings provide a starting point for identifying optimal plasma psilocin levels that correlate with a desired 5-HT2A receptor occupancy levels. According to the inventors' testing, the skin flux of psilocin is in the range of 1 μg/cm^2/hr to […], on average 5 μg/cm^2/hr. With patch area of 50 cm^2 the dose per hour input ranges from 50 μg/hr/patch to 500 μg/hr/patch. At this patch size, the high end of the hourly input is approaching that of a 1-mg intravenous application. The daily dose ranges from 1.2 mg/day/patch to 12 mg/day/patch. At a skin flux of 5 μg/cm^2/hr, the hourly input is 250 μg/hr/patch and the daily dose is 6 mg/day/patch. A suitable transdermal system for accomplishing the aforementioned delivery profile can be constructed as described above.

[1] = patch area of 50 cm^2, at a skin flux of 5 μg/cm^2/hr

CN(C)CCc1c[nH]c2cccc(O)c12 [psilocin]
skin flux of psilocin, on average (average, according to the inventors' testing): 5 μg/cm^2/hr
daily dose [1]: 6 mg/day/patch
hourly input [1]: 250 μg/hr/patch
